Here are results for three molecules from US6083932A, “Pharmaceutical compositions derived from ginseng and methods of treatment using same” (CV Technologies Inc., priority 1998, dated 2000).

The subject of this assay is choline uptake in rat brain synaptomes. The assay is described as follows: choline uptake in rat brain synaptosomes (Example 2). It is filed as biochemical. The settings on record: mean ± SE, n = 4. From the text:
Example 2 is a comparison of several batches of Rb1 extract, an extract of total ginsenosides (TS) containing 25% Rb1, 19.4% Rc1 and 21.6% Rg1+Re, and HT1001 on choline uptake in rat brain synaptomes. The Rb1 tested had greater than 98% purity. Rb1-52, Rb1-53 and Rb1-54 represent three different batches of Rb1.

On to `CC(C)=CCC[C@](C)(O[C@@H]1O[C@H](CO[C@@H]2O[C@H](CO)[C@@H](O)[C@H](O)[C@H]2O)[C@@H](O)[C@H](O)[C@H]1O)[C@H]1CC[C@]2(C)[C@@H]1[C@H](O)C[C@@H]1[C@@]3(C)CC[C@H](O[C@@H]4O[C@H](CO)[C@@H](O)[C@H](O)[C@H]4O[C@@H]4O[C@H](CO)[C@@H](O)[C@H](O)[C@H]4O)C(C)(C)[C@@H]3CC[C@]12C` [Rb1-52, ginsenoside Rb1], for which the choline uptake is listed as 108 ± 5.7 % of control (0.0011 mg/l); 108 ± 4.4 % of control (0.011 mg/l); 108 ± 5.8 % of control (0.11 mg/l); 109 ± 5.4 % of control (1.1 mg/l); 111 ± 3.7 % of control (11 mg/l).

Turning to `CC(C)=CCC[C@](C)(O[C@@H]1O[C@H](CO[C@@H]2O[C@H](CO)[C@@H](O)[C@H](O)[C@H]2O)[C@@H](O)[C@H](O)[C@H]1O)[C@H]1CC[C@]2(C)[C@@H]1[C@H](O)C[C@@H]1[C@@]3(C)CC[C@H](O[C@@H]4O[C@H](CO)[C@@H](O)[C@H](O)[C@H]4O[C@@H]4O[C@H](CO)[C@@H](O)[C@H](O)[C@H]4O)C(C)(C)[C@@H]3CC[C@]12C` [Rb1-53, ginsenoside Rb1], the choline uptake was 106 ± 1.3 % of control (0.0011 mg/l); 109 ± 3.6 % of control (0.011 mg/l); 109 ± 3.8 % of control (0.11 mg/l); 112 ± 4.8 % of control (1.1 mg/l); 114 ± 2.5 % of control (11 mg/l).

`CC(C)=CCC[C@](C)(O[C@@H]1O[C@H](CO[C@@H]2O[C@H](CO)[C@@H](O)[C@H](O)[C@H]2O)[C@@H](O)[C@H](O)[C@H]1O)[C@H]1CC[C@]2(C)[C@@H]1[C@H](O)C[C@@H]1[C@@]3(C)CC[C@H](O[C@@H]4O[C@H](CO)[C@@H](O)[C@H](O)[C@H]4O[C@@H]4O[C@H](CO)[C@@H](O)[C@H](O)[C@H]4O)C(C)(C)[C@@H]3CC[C@]12C` [Rb1-54, ginsenoside Rb1]: the choline uptake is 108 ± 3 % of control (0.0011 mg/l); 110 ± 3.4 % of control (0.011 mg/l); 110 ± 2.6 % of control (0.11 mg/l); 112 ± 1.2 % of control (1.1 mg/l); 111 ± 2.6 % of control (11 mg/l).
